Laboratory results: patent US20060287320A1, “Preparation of thioarabinofuranosyl compounds and use thereof” (Southern Research Institute, priority 1998, published 2006)

Tests used:
CAK1-1 Renal = assay: In vitro IC50, 72 hour exposure, Natural Red assay; type: cell-based; details: read-out: IC50 Molar Values
Procedure: (§1) EXAMPLE 3 The following in vitro tests were carried out.
(§2) The above tests were carried out with a 72 hour exposure to the compound using Natural Red assay for all cell lines except SK-MEL 28 which was done with SRB assay.

DLD-1 Colon = assay: In vitro IC50, 72 hour exposure, Natural Red assay; type: cell-based; details: Homo sapiens, read-out: IC50 Molar Values
Procedure: as §1, §2

LOX IMV1 Melanoma = assay: In vitro IC50, 72 hour exposure, Natural Red assay; type: cell-based; details: read-out: IC50 Molar Values
Procedure: as §1, §2

NC1-H23 Lung = assay: In vitro IC50, 72 hour exposure, Natural Red assay; type: cell-based; details: read-out: IC50 Molar Values
Procedure: as §1, §2

PC-3 Prostate = assay: In vitro IC50, 72 hour exposure, Natural Red assay; type: cell-based; details: read-out: IC50 Molar Values
Procedure: as §1, §2

ZR-75-1 Mammary = assay: In vitro IC50, 72 hour exposure, Natural Red assay; type: cell-based; details: Homo sapiens, read-out: IC50 Molar Values
Procedure: as §1, §2

SC Colon 36 Tumor = assay: Response of SC Colon 36 Tumor to Treatment; type: in vivo; details: 18 Mg/Kg IP, Q 1D × 9 day 9
Procedure: (§3) The following in vivo tests were carried out to illustrate the effectiveness of the compounds of the present invention.

SC CAKI-1 Renal Tumor = assay: Response of SC CAKI-1 Renal Tumor to Treatment; type: in vivo
Procedure: as §3

SC HCT-116 Colon Tumor = assay: Response of SC HCT-116 Colon Tumor to Treatment; type: in vivo; details: Q 1D × 9 day 6
Procedure: as §3

CEM cells [1] = assay: Initial half-life of triphosphates in CEM cells; type: cell-based; details: CEM cells after 1 hour with 100 nM radiolabeled nucleoside, then fresh medium; 5′-triphosphate peak
Procedure: Samples were collected at various times after the cells were resuspended in fresh medium, and the amount of radioactivity in the 5'-triphosphate peak was determined using SAX HPLC. The data presented are the mean and standard deviation from 3 separate experiments.

CEM cells [2] = assay: Retention of araCTP and T-araCTP in CEM cells (FIG. 2); type: cell-based
Procedure: […]. Samples were collected at various times after the cells were resuspended in fresh medium, and the amount of radioactivity in the 5′-triphosphate peak was determined using SAX HPLC. In this experiment there was 0.639 pmoles araCTP/10^6 cells and 0.246 pmoles of T-araCTP after the 1 hour incubation with radiolabeled compound.

CEM cells (wild-type) = assay: Metabolism of dCyd and analogs in wild-type CEM cells; type: cell-based; details: WT CEM cells; 100 nM; incubation time 0.25 hours
Procedure: (§4) The radioactivity in the 5′-triphosphate peak and the incorporation of radioactivity in the acid-insoluble fraction (DNA) was determined.

araC-resistant CEM cells = assay: Metabolism of dCyd and analogs in araC-resistant CEM cells; type: cell-based; details: 100 nM, incubation time 0.25 hours
Procedure: as §4

[3] = Phosphorylation in cell-free CEM extracts, wild-type; type: biochemical; details: wild-type CEM cell extract; 1 μm substrate
Procedure: (§5) The number in parentheses is the number of experiments performed. […] At various times after the initiation of the experiment, an aliquot of each reaction volume was removed and placed on DE-81 filters. The filters were washed with 1 mM ammonium formate and ethanol, and the amount of radioactivity on each filter was determined. […] This assay was verified by HPLC.

[4] = Phosphorylation in cell-free CEM extracts, araC-resistant; type: biochemical; details: phosphorylation in araC-resistant vs wild-type CEM extract
Procedure: as §5

CEM cells [5] = assay: Complete metabolism of dCyd, T-dCyd, araC and T-araC in CEM cells; type: cell-based; details: 100 nM, incubation 1 hour
Procedure: The complete metabolism of each compound was determined: The medium was analyzed for the original compound, its deaminated form using reverse phase HPLC, and H20; the acid-soluble extract was analyzed by SAX HPLC for phosphorylated metabolites; and the incorporation of radioactivity into acid-precipitable material (DNA) was determined.

CEM cells [6] = assay: Effect of F-dUrd on metabolism (deamination) in CEM cells; type: cell-based; details: 100 nM, incubation time 1 hour
Procedure: The complete metabolism of each compound was determined as described in the legend to Table 12, and the percent of deaminated metabolites for each compound was determined.

Structure (SMILES): Nc1nc(=O)n([C@@H]2S[C@H](CO)[C@@H](O)[C@@H]2O)cc1F [5-fluorothioaraC, 1-(4-Thio-β-D-arabinofuranosyl)5-fluorocytosine]
- IC50 (CAK1-1 Renal): 20 µM
- IC50 (DLD-1 Colon): 80 µM
- IC50 (LOX IMV1 Melanoma): 6 µM
- IC50 (NC1-H23 Lung): 3000 nM
- IC50 (PC-3 Prostate): 100 µM
- IC50 (ZR-75-1 Mammary): 600 nM

Structure (SMILES): CCCCCCCCCCCCCCCC(=O)Nc1ccn([C@@H]2O[C@H](CO)[C@@H](O)[C@@H]2O)c(=O)n1 [Palmo-ARA-C]
- Days Delay (T − C) (SC Colon 36 Tumor): >38.5 days
- Days to 2 Doubling (SC Colon 36 Tumor): >49.0 days
- Non-Specific Deaths/Total (SC Colon 36 Tumor): 0/5
- Tumor Free Surv/Total (SC Colon 36 Tumor): 4/5
- Tumor Regression Duration Med (SC Colon 36 Tumor): 34.6 days
- Tumor Regression Duration Range (Days) (SC Colon 36 Tumor): 35-35 Days
- Tumor Regression Number of Complete (SC Colon 36 Tumor): 5
- Tumor Regression Number of Partial (SC Colon 36 Tumor): 0
- Days Delay (T − C) (SC CAKI-1 Renal Tumor; 22.5 Mg/Kg IP, 0 1D × 9 day 7): 26.5 days
- Days to 3 Doubling (SC CAKI-1 Renal Tumor; 22.5 Mg/Kg IP, 0 1D × 9 day 7): 36.0 days
- Non-Specific Deaths/Total (SC CAKI-1 Renal Tumor; 22.5 Mg/Kg IP, 0 1D × 9 day 7): 1/6
- Tumor Free Surv/Total (SC CAKI-1 Renal Tumor; 22.5 Mg/Kg IP, 0 1D × 9 day 7): 0/6
- Tumor Regression Duration Med (SC CAKI-1 Renal Tumor; 22.5 Mg/Kg IP, 0 1D × 9 day 7): 9.1 days
- Tumor Regression Duration Range (Days) (SC CAKI-1 Renal Tumor; 22.5 Mg/Kg IP, 0 1D × 9 day 7): 9-9 Days
- Tumor Regression Number of Complete (SC CAKI-1 Renal Tumor; 22.5 Mg/Kg IP, 0 1D × 9 day 7): 1
- Tumor Regression Number of Partial (SC CAKI-1 Renal Tumor; 22.5 Mg/Kg IP, 0 1D × 9 day 7): 0
- Days Delay (T − C) (SC CAKI-1 Renal Tumor; 45 Mg/Kg IP, Q 1D × 5 day 7): 31.7 days
- Days to 3 Doubling (SC CAKI-1 Renal Tumor; 45 Mg/Kg IP, Q 1D × 5 day 7): 41.2 days
- Non-Specific Deaths/Total (SC CAKI-1 Renal Tumor; 45 Mg/Kg IP, Q 1D × 5 day 7): 4/6
- Toxicity remark under Days Delay (T − C) (SC CAKI-1 Renal Tumor; 45 Mg/Kg IP, Q 1D × 5 day 7): (Toxic)
- Tumor Free Surv/Total (SC CAKI-1 Renal Tumor; 45 Mg/Kg IP, Q 1D × 5 day 7): 0/6
- Tumor Regression Number of Complete (SC CAKI-1 Renal Tumor; 45 Mg/Kg IP, Q 1D × 5 day 7): 0
- Tumor Regression Number of Partial (SC CAKI-1 Renal Tumor; 45 Mg/Kg IP, Q 1D × 5 day 7): 0
- Days Delay (T − C) (SC HCT-116 Colon Tumor; 15 Mg/Kg IP): 6.0 days
- Days to 2 Doubling (SC HCT-116 Colon Tumor; 15 Mg/Kg IP): 14.9 days
- Non-Specific Deaths/Total (SC HCT-116 Colon Tumor; 15 Mg/Kg IP): 0/6
- Tumor Free Surv/Total (SC HCT-116 Colon Tumor; 15 Mg/Kg IP): 0/6
- Tumor Regression Number of Complete (SC HCT-116 Colon Tumor; 15 Mg/Kg IP): 0
- Tumor Regression Number of Partial (SC HCT-116 Colon Tumor; 15 Mg/Kg IP): 0
- Days Delay (T − C) (SC HCT-116 Colon Tumor; 22.5 Mg/Kg IP): 15.1 days
- Days to 2 Doubling (SC HCT-116 Colon Tumor; 22.5 Mg/Kg IP): 24.0 days
- Non-Specific Deaths/Total (SC HCT-116 Colon Tumor; 22.5 Mg/Kg IP): 0/6
- Tumor Free Surv/Total (SC HCT-116 Colon Tumor; 22.5 Mg/Kg IP): 0/6
- Tumor Regression Duration Med (SC HCT-116 Colon Tumor; 22.5 Mg/Kg IP): 24.2 days
- Tumor Regression Duration Range (Days) (SC HCT-116 Colon Tumor; 22.5 Mg/Kg IP): 24-24 Days
- Tumor Regression Number of Complete (SC HCT-116 Colon Tumor; 22.5 Mg/Kg IP): 1
- Tumor Regression Number of Partial (SC HCT-116 Colon Tumor; 22.5 Mg/Kg IP): 0

Structure (SMILES): Nc1ccn(C2SC(COP(=O)(O)OP(=O)(O)OP(=O)(O)O)C(O)C2O)c(=O)n1 (stereo not shown) [T-araCTP]
- Initial Half-Life, Hours (SD) (CEM cells [1]): 10.8 ± 1.80 h
- T-araCTP after the 1 hour incubation (CEM cells [2]): 0.246 pmol

Structure (SMILES): Nc1ccn(C2CC(O)C(COP(=O)(O)OP(=O)(O)OP(=O)(O)O)S2)c(=O)n1 (stereo not shown) [T-dCTP]
- Initial Half-Life, Hours (SD) (CEM cells [1]): 1.10 ± 0.35 h

Structure (SMILES): Nc1ccn([C@@H]2O[C@H](COP(=O)(O)OP(=O)(O)OP(=O)(O)O)[C@@H](O)[C@@H]2O)c(=O)n1 [araCTP]
- Initial Half-Life, Hours (SD) (CEM cells [1]): 5.31 ± 0.31 h
- araCTP after the 1 hour incubation (CEM cells [2]; CEM cells, 1 hour with 5 nM [5-3H]araC): 0.639 pmoles/10^6 cells

Structure (SMILES): Nc1ccn([C@H]2C[C@H](O)[C@@H](COP(=O)(O)OP(=O)(O)OP(=O)(O)O)O2)c(=O)n1 [dCTP]
- Initial Half-Life, Hours (SD) (CEM cells [1]): 0.94 ± 0.16 h

Structure (SMILES): Nc1ccn([C@H]2C[C@H](O)[C@@H](CO)O2)c(=O)n1 [dCyd, 2′-deoxycytidine]
- DNA (CEM cells (wild-type)): 1.19 pmoles/10^6 cells
- Total (CEM cells (wild-type)): 3.46 pmoles/10^6 cells
- DNA (araC-resistant CEM cells): 0.011 pmoles/10^6 cells
- DNA (percent of WT) (araC-resistant CEM cells): 0.89% of WT
- Total (araC-resistant CEM cells): 0.032 pmoles/10^6 cells
- Total (percent of WT) (araC-resistant CEM cells): 0.91% of WT
- Phosphorylation, Wild-type [3]: 240 ± 33 pmoles/mg protein/minute
- Percent of wild-type [4]: 1.5% of wild-type
- DNA (percent of total) (CEM cells [5]): 3% of total
- Original Compound (percent of total) (CEM cells [5]): 38% of total
- Percent Deamination (CEM cells [6]; F-dUrd 0 μM): 32%
- Percent Deamination (CEM cells [6]; F-dUrd 10 μM): 22%
